Test [1] has as its target T1, interaction between PGRMC1 and EGFR (Homo sapiens, UniProt O00264).
T1 construct: mammalian FLAG-tagged expression vector pCMV-FLAG-PGRMC1 (full-length); expressed in transfected cells; host or cells: HCT116 or HuH7
The test can be described thus: Co-immunoprecipitation of PGRMC1 and EGFR in HuH7 cells. It is filed as cell-based. Conditions: HuH7, FLAG-PGRMC1 co-IP, 12 h treatment. The method, then: (§1) An expression vector of pCMV-3xFLAG-PGRMC1 or an empty vector was transfected into HCT116 cells or HuH7 cells using the transfection reagent Lipofectamine 2000 (Invitrogen). The cells were incubated overnight with either GL or GlucoGL. Cells were then lysed with NP40 lysis buffer (20 mM Tris-HCl [pH 7.5], 150 mM NaCl, and 1% NP40). The lysates were incubated with 10 μL of equilibrated anti-FLAG (M2) agarose for 60 min at room temperature. Bound proteins were washed three times and subjected to SDS-PAGE and visualized through western blotting using antibodies against FLAG, EGFR, and LDLR. For analysis of the endogenous PGRMC1-binding with FLAG-PGRMC1, HCT116 cells (1 × 10^7 cells) were treated with vehicle or 250 μM SA and/or 10 μM hemin for 48 h, and the cell lysates were co-immunoprecipitated with anti-FLAG (M2) agarose. Bound proteins (endogenous PGRMC1 and FLAG-tagged PGRMC1) were visualized through western blotting using antibody against PGRMC1.

For a further test, the target named is T2, PGRMC1-PGRMC1 binding (Homo sapiens, UniProt O00264).
T2 construct: mammalian FLAG-tagged expression vector pCMV-FLAG-PGRMC1 (full-length); Endogenous PGRMC1 (25 kDa) was co-immunoprecipitated; expressed in transfected cells; host or cells: HCT116
The test can be described thus: Co-immunoprecipitation of endogenous PGRMC1 with FLAG-PGRMC1 in HCT116 cells. Type of test: cell-based. Conditions: HCT116, co-IP of endogenous PGRMC1 with FLAG-PGRMC1, GL 12 hr. The method, then:
as §1

The target of the next test is T3, PGRMC1 Q149F (Homo sapiens, UniProt O00264, Q149F).
T3 construct: human PGRMC1 intracellular domain residues 43-195; GST (N, cleaved yes); made in house; host or cells: E. coli BL21 (DE3)
The experiment in a line: ITC binding of GL to PGRMC1 mutant Q149F. The source says: (§2) Bacterial expression vectors pGEX-PGRMC1 (human PGRMC1 intracellular domain residues 43-195) and mammalian FLAG-tagged expression vector pCMV-FLAG-PGRMC1 (full-length) were constructed as described previously. Expression vectors for PGRMC1 point mutants were generated by site-directed mutagenesis with PCR. For construction of HMGB1 expression vector, human HMGB1 full-length cDNA was cloned from cDNA library of HCT116 cells using the primers (Forward: 5′-[…]-3′, Reverse: 5′-[…]-[…]-3′), digested with Bam HI and Sal I, and then ligated into pGEX6P1.
(§3) ITC experiments were performed at 298 K with ITC-Buffer (50 mM phosphate [pH 7.0]) using a MicroCal iTC200 (Malvern Panalytical, Malvern, UK). GL derivatives were dissolved in […] and titrated into 100 μM apo-PGRMC1, heme-bound-PGRMC1, or HMGB1 protein. Titration was performed by injecting 2 µL of the syringe solution at intervals of 120 s. Binding isotherms were analyzed using SEDPHAT [35]. The binding of AG205 to apo- or heme-PGRMC1 (100 μM) was analyzed using a concentration of 3 mM containing 1% DMSO. The binding affinities of GL derivatives for HMGB1 (80 µM) were analyzed using a concentration of 3 mM.

In a further test the target is T4, PGRMC1 G111W (Homo sapiens, UniProt O00264, G111W).
T4 construct: human PGRMC1 intracellular domain residues 43-195; GST (N, cleaved yes); made in house; host or cells: E. coli BL21 (DE3)
The experiment in a line: ITC binding of GL to PGRMC1 mutant G111W.
Description: as §2, §3

Another test concerns the target T5, PGRMC1 F128W (Homo sapiens, UniProt O00264, F128W).
T5 construct: human PGRMC1 intracellular domain residues 43-195; GST (N, cleaved yes); made in house; host or cells: E. coli BL21 (DE3)
The experiment in a line: ITC binding of GL to PGRMC1 mutant F128W.
Description: as §2, §3

A further test concerns the target T6, PGRMC1 G108W (Homo sapiens, UniProt O00264, G108W).
T6 construct: human PGRMC1 intracellular domain residues 43-195; GST (N, cleaved yes); made in house; host or cells: E. coli BL21 (DE3)
The test can be described thus: ITC binding of GL to PGRMC1 mutant G108W.
Description: as §2, §3

The target of another test is T7, PGRMC1 A147W (Homo sapiens, UniProt O00264, A147W).
T7 construct: human PGRMC1 intracellular domain residues 43-195; GST (N, cleaved yes); made in house; host or cells: E. coli BL21 (DE3)
The experiment in a line: ITC binding of GL to PGRMC1 mutant A147W.
Description: as §2, §3

Another test concerns the target T8, apo-PGRMC1 (Homo sapiens, UniProt O00264).
T8 construct: human PGRMC1 intracellular domain residues 43-195; GST (N, cleaved yes); made in house; host or cells: E. coli BL21 (DE3)
The test can be described thus: ITC binding to apo-PGRMC1. Conditions: apo-monomer form.
Description: as §2
Expression vectors (pGEX-PGRMC1 (residues 43-195) or pGEX-HMGB1) were transformed into BL21 (DE3) competent E. coli cells, and the cells incubated in LB medium with ampicillin at 37 °C until the OD600 reached 0.8. Protein expression was induced by adding 1 mM isopropyl-β-thiogalactopyranoside (IPTG) and incubating at 37 °C for 4 h. […]
ITC experiments were performed at 298 K with ITC-Buffer (50 mM phosphate [pH 7.0]) using a MicroCal iTC200 (Malvern Panalytical, Malvern, UK). […] Binding isotherms were analyzed using SEDPHAT [35]. The binding of AG205 to apo- or heme-PGRMC1 (100 μM) was analyzed using a concentration of 3 mM containing 1% DMSO. […]

Another test addresses T9, PGRMC1 K132V (Homo sapiens, UniProt O00264, K132V).
T9 construct: human PGRMC1 intracellular domain residues 43-195; GST (N, cleaved yes); made in house; host or cells: E. coli BL21 (DE3)
The experiment in a line: ITC binding of GL to PGRMC1 mutant K132V.
Description: as §2, §3

The target in another test is T10, PGRMC1 T146W (Homo sapiens, UniProt O00264, T146W).
T10 construct: human PGRMC1 intracellular domain residues 43-195; GST (N, cleaved yes); made in house; host or cells: E. coli BL21 (DE3)
The experiment in a line: ITC binding of GL to PGRMC1 mutant T146W.
Description: as §2, §3

Entries after “also recorded” stand apart in the source; their conditions may differ.

T5 sequence (O00264 43-195 F128W): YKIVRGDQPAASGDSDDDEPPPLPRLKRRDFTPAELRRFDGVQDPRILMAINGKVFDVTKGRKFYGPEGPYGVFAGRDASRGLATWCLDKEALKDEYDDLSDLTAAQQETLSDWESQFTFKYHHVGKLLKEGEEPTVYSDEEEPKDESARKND
T4 sequence (O00264 43-195 G111W): as the sequence (O00264 43-195 F128W) above, with G69W, W86F counted along it
T7 sequence (O00264 43-195 A147W): as the sequence (O00264 43-195 F128W) above, with W86F, A105W counted along it
T3 sequence (O00264 43-195 Q149F): as the sequence (O00264 43-195 F128W) above, with W86F, Q107F counted along it
T9 sequence (O00264 43-195 K132V): as the sequence (O00264 43-195 F128W) above, with W86F, K90V counted along it
T6 sequence (O00264 43-195 G108W): as the sequence (O00264 43-195 F128W) above, with G66W, W86F counted along it
T10 sequence (O00264 43-195 T146W): as the sequence (O00264 43-195 F128W) above, with W86F, T104W counted along it
T1 sequence (O00264 whole entry): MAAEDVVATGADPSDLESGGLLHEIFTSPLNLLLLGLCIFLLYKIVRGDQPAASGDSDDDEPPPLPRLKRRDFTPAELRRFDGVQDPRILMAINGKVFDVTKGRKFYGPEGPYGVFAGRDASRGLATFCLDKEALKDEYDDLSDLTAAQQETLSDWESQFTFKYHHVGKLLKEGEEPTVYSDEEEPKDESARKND
T8 sequence (O00264 43-195): as the sequence (O00264 43-195 F128W) above, with W86F counted along it
T2 sequence (O00264 whole entry): as the sequence (O00264 whole entry) above
T2 sequence (O00264 whole entry): as above

As to `CC1(C(=O)O)CCC2(C)CCC3(C)C(=CC(=O)C4C5(C)CCC(OC6OC(C(=O)O)C(O)C(O)C6OC6OC(CO)C(O)C(O)C6O)C(C)(C)C5CCC43C)C2C1` (centres unmarked) [Glucoglycyrrhizin (GlucoGL), Glucoglycyrrhizin], the “Interaction between PGRMC1 and EGFR” value in test [1] is reported as “inhibited the interaction”.
For orientation: Kd means the concentration at which binding is half-saturated. Turning to `CC1(C)[C@@H](O[C@H]2O[C@H](C(=O)O)[C@@H](O)[C@H](O)[C@H]2O[C@@H]2O[C@H](C(=O)O)[C@@H](O)[C@H](O)[C@H]2O)CC[C@]2(C)[C@H]3C(=O)C=C4[C@@H]5C[C@@](C)(C(=O)O)CC[C@]5(C)CC[C@@]4(C)[C@]3(C)CC[C@@H]12` [Glycyrrhizin (GL), Glycyrrhizin], on PGRMC1-PGRMC1 binding, the PGRMC1-PGRMC1 binding entry is given as “did not affect”. Further, the “Interaction between PGRMC1 and EGFR” value in test [1] is “inhibited the interaction”. The Kd on PGRMC1 Q149F amounted to 403 µM; on PGRMC1 G111W, 108 µM; on PGRMC1 F128W, 137 µM; at PGRMC1 G108W, 185 µM; on PGRMC1 A147W it was 158 µM; on PGRMC1 K132V it was 84.6 µM. Moreover, on PGRMC1 T146W, the affinity, expressed as Kd, was 97.9 µM. Besides, the TΔS was −10.62 K･kcal/mol on PGRMC1 Q149F; 4.39 K･kcal/mol at PGRMC1 G111W; 0.38 K･kcal/mol on PGRMC1 F128W; 1.58 K･kcal/mol on PGRMC1 G108W; 2.10 K･kcal/mol at PGRMC1 A147W; 4.55 K･kcal/mol on PGRMC1 K132V. Besides, the TΔS at PGRMC1 T146W turned out to be 2.64 K･kcal/mol. For the same compound, the ΔH on PGRMC1 Q149F was -14.37 kcal/mol; on PGRMC1 G111W, -1.86 kcal/mol; at PGRMC1 F128W it was -4.90 kcal/mol; on PGRMC1 G108W, -3.51 kcal/mol; on PGRMC1 A147W, -3.09 kcal/mol; on PGRMC1 K132V it was -1.01 kcal/mol. At PGRMC1 T146W, the ΔH was -2.17 kcal/mol. The ΔG on PGRMC1 F128W is -5.27 kcal/mol; at PGRMC1 G108W, -5.09 kcal/mol; on PGRMC1 A147W, -5.19 kcal/mol; on PGRMC1 K132V, -5.56 kcal/mol. In addition, at apo-PGRMC1, the “Binding to apo-PGRMC1” value is given as “No Binding; also recorded: not to the apo-monomer form”.

For the origin of these results see paper PMC8269059, “Glycyrrhizin Derivatives Suppress Cancer Chemoresistance by Inhibiting Progesterone Receptor Membrane Component 1” (Cancers, 2021).
